Data reported in US20240116985A1, “STAPLED PEPTIDES AND METHODS THEREOF” (priority 2020, published 2024).
≈ marks a conversion by molar mass, not a printed value. Like-named read-outs stand apart in the source and are kept apart here.

Legend:
Solubility in PBS = assay type: physicochemical
Method in brief: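 Read-out is the HPLC peak area of the supernatant from ultracentrifuged PBS solution, scaled against a 50 μM peptide DMSO injection; value reported as [(PBS area)/(DMSO area)]*50 uM.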

CHI Log D procedure = assay type: physicochemical; settings: for chromatographic logD: pH 7.4, CHI Log D; for CHI Log D: pH 7.4
[1] = biological target: T1, full-length B-Catenin (Uniprot ID P35222) (Homo sapiens, UniProt P35222); experiment: Alphascreen binding assay (beta-catenin / biotin-TCF4 10-53)
T1 construct: 65 nM full-length B-Catenin (Uniprot ID P35222)
T1 sequence (P35222 1-781): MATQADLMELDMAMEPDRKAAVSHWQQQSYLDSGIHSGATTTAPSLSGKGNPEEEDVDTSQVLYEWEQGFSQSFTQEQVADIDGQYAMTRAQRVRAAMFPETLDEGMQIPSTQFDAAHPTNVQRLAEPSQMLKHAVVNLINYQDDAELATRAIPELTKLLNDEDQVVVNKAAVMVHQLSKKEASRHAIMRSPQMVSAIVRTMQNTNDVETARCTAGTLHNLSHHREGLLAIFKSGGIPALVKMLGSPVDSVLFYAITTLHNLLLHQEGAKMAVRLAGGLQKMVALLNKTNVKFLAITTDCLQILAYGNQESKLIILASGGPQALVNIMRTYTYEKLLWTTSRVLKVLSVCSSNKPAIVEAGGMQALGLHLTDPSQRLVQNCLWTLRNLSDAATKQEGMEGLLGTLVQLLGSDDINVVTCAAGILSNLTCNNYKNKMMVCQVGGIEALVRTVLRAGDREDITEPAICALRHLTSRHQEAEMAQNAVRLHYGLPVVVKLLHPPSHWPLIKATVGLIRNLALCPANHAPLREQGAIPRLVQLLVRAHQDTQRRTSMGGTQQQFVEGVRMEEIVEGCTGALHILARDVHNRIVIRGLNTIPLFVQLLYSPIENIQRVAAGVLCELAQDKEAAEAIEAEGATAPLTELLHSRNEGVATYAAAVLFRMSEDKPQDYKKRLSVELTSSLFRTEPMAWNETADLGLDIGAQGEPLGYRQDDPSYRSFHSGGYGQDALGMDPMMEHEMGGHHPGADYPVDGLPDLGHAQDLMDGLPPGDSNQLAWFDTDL
Method in brief: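 AlphaScreen (Ni-chelate beads) competition in 50 mM Tris pH 8.0, 250 mM NaCl with detergents and 0.1% BSA. Peptide titrated 10 uM–5 nM against 65 nM human β-catenin bound to 10 nM biotinylated TCF4 10-53, 15 min then 60 min with beads, both at 20 °C; 1:1 Hill-slope fit.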

[2] = biological target: T2, full-length beta-Catenin (Uniprot ID P35222) (Homo sapiens, UniProt P35222); experiment: Fluorescence polarization IC50 (beta-catenin / 5FAM-TCF4 10-53 competition); assay type: binding; settings: Table E2-1; read-out: beta-Catenin FP IC50
T2 construct: 10 nM full-length beta-Catenin (Uniprot ID P35222)
T2 sequence (P35222 1-781): T1 sequence (P35222 1-781)

Row | Compound | Solubility (Solubility in PBS; Solubility (uM)) [µM] | chromatographic logD (CHI Log D procedure) | EC50 [1] [µM] | Solubility (Solubility in PBS) [µM] | CHI Log D (CHI Log D procedure) | solubility at 15 min (Solubility in PBS; Solubility (uM)) [µM] | IC50 [2] [µM]
1 | CC(=O)N1CCC[C@]12CC=CCCCC1(CCCC=CCCCCCC[C@@](C)(C(=O)N[C@@H](CCc3ccccc3)C(=O)N[C@@H](Cc3c[nH]c4ccccc34)C(=O)N[C@@H](CCC(N)=O)C(N)=O)NC(=O)[C@H](C(C)C)NC(=O)[C@H](Cc3ccccc3)NC(=O)[C@H](C)NC(=O)[C@H](C)NC(=O)[C@H](CC(=O)O)NC(=O)[C@H](CC(=O)O)NC1=O)NC(=O)[C@H](C)NC(=O)[C@H](CC(=O)O)NC2=O (stereo partly drawn) [I-268, Ac-PL3-Asp-Ala-B5-Asp-Asp-Ala-Ala-Phe-Val-S8-hPhe-Trp-Gln-NH2] | 47 (≈ 84.4 µg/mL) | 2.08 | 4 |  |  |  | 
2 | CC(=O)N[C@@H](Cc1ccccc1)C(=O)N[C@@H](CC(=O)O)C(=O)N[C@@H](C)C(=O)N[C@]1(C)CCCCCCC=CCOC(=O)N2CC[C@@](C(=O)N[C@@H](Cc3c(F)c(F)c(F)c(F)c3F)C(=O)N[C@@H](Cc3c[nH]c4ccccc34)C(=O)N[C@@H](CCC(N)=O)C(N)=O)(C2)NC(=O)[C@H](C(C)C)NC(=O)[C@H](Cc2ccccc2)NC(=O)[C@H](C)NC(=O)[C@H](C)NC(=O)[C@H](CC(=O)O)NC(=O)[C@H](CC(=O)O)NC1=O [I-228, Ac-Phe-Asp-Ala-R8-Asp-Asp-Ala-Ala-Phe-Val-PyrS-Pff-Trp-Gln-NH2] |  |  | 5.91 | 38 (≈ 72.7 µg/mL) | 1.534 |  | 
3 | CC(=O)N1CCC[C@]12CC=CCCCC1(CCCC=CCCCCCC[C@@](C)(C(=O)N[C@@H](Cc3ccccc3)C(=O)N[C@@H](Cc3c[nH]c4ccccc34)C(=O)N[C@@H](CCC(N)=O)C(N)=O)NC(=O)[C@H](C(C)C)NC(=O)[C@H](Cc3ccccc3)NC(=O)[C@H](C)NC(=O)[C@H](C)NC(=O)C(Cc3cccc4cc(F)ccc34)NC(=O)[C@H](CC(=O)O)NC1=O)NC(=O)[C@H](C)NC(=O)[C@H](CC(=O)O)NC2=O (stereo partly drawn) [I-256, Ac-PL3-Asp-Ala-B5-Asp-6F1NapA-Ala-Ala-Phe-Val-S8-Phe-Trp-Gln-NH2] |  | 3.1 | 9.21 | 10 (≈ 18.8 µg/mL) |  |  | 
4 | CC(=O)N1CCC[C@]12CC=CCCCC1(CCCC=CCCCCCC[C@@](C)(C(=O)N[C@@H](Cc3ccccc3)C(=O)N[C@@H](Cc3c[nH]c4ccccc34)C(=O)N[C@@H](CCC(N)=O)C(N)=O)NC(=O)[C@H](C(C)C)NC(=O)[C@H](C)NC(=O)[C@H](C)NC(=O)[C@H](C)NC(=O)[C@H](CC(=O)O)NC(=O)[C@H](CC(=O)O)NC1=O)NC(=O)[C@H](C)NC(=O)[C@H](CC(=O)O)NC2=O (stereo partly drawn) [I-354, Ac-PL3-Asp-Ala-B5-Asp-Asp-Ala-Ala-Ala-Val-S8-Phe-Trp-Gln-NH2] |  |  | 2.13 | 50 (≈ 85.2 µg/mL) | 1.947 |  | 
5 | CC(=O)N1CCC[C@]12CC=CCCCC1(CCCC=CCCCCCC[C@@](C)(C(=O)N[C@@H](Cc3ccc4ccccc4c3)C(=O)N[C@@H](Cc3c[nH]c4ccccc34)C(=O)N[C@@H](CCC(N)=O)C(N)=O)NC(=O)[C@H](C(C)C)NC(=O)[C@H](Cc3ccccc3)NC(=O)[C@H](C)NC(=O)[C@H](C)NC(=O)[C@H](CC(=O)O)NC(=O)[C@H](CC(=O)O)NC1=O)NC(=O)[C@H](C)NC(=O)[C@H](CC(=O)O)NC2=O (stereo partly drawn) [I-277, Ac-PL3-Asp-Ala-B5-Asp-Asp-Ala-Ala-Phe-Val-S8-2NapA-Trp-Gln-NH2] |  |  | 6.8 | 45 (≈ 82.4 µg/mL) | 2.186 |  | 
6 | CC(=O)N1CCC[C@]12CC=CCCCC1(CCCC=CCCCCCC[C@@](C)(C(=O)N[C@@H](Cc3ccccc3)C(=O)N[C@@H](Cc3c[nH]c4ccccc34)C(=O)N[C@@H](CCC(N)=O)C(N)=O)NC(=O)[C@H](C(C)C)NC(=O)[C@H](Cc3ccccc3)NC(=O)[C@H](C)NC(=O)[C@H](C)NC(=O)[C@H](Cc3ccc(O)cc3)NC(=O)[C@H](CC(=O)O)NC1=O)NC(=O)[C@H](C)NC(=O)[C@H](CC(=O)O)NC2=O (stereo partly drawn) [I-274, Ac-PL3-Asp-Ala-B5-Asp-Tyr-Ala-Ala-Phe-Val-S8-Phe-Trp-Gln-NH2] |  | 2.62 | 2.35 | 10 (≈ 18.3 µg/mL) |  |  | 
7 | CC(=O)N1CCC[C@]12CC=CCCCC1(CCCC=CCCCCCC[C@@](C)(C(=O)N[C@@H](C)C(=O)N[C@@H](Cc3c[nH]c4ccccc34)C(=O)N[C@@H](CCC(N)=O)C(N)=O)NC(=O)[C@H](C(C)C)NC(=O)[C@H](Cc3ccccc3)NC(=O)[C@H](C)NC(=O)[C@H](C)NC(=O)[C@H](CC(=O)O)NC(=O)[C@H](CC(=O)O)NC1=O)NC(=O)[C@H](C)NC(=O)[C@H](CC(=O)O)NC2=O (stereo partly drawn) [I-356, Ac-PL3-Asp-Ala-B5-Asp-Asp-Ala-Ala-Phe-Val-S8-Ala-Trp-Gln-NH2] |  |  | 8.2 | 50 (≈ 85.2 µg/mL) | 1.619 |  | 
8 | CC(=O)N[C@@H](Cc1ccccc1)C(=O)N[C@@H](CC(=O)O)C(=O)N[C@@H](C)C(=O)N[C@]1(C)CCCCCCC=CCOC(=O)N2CC[C@@](C(=O)N[C@@H](Cc3ccccc3)C(=O)N[C@@H](Cc3c[nH]c4ccccc34)C(=O)N[C@@H](CCC(N)=O)C(N)=O)(C2)NC(=O)[C@H](C(C)C)NC(=O)[C@H](CC2CCCC2)NC(=O)[C@H](C)NC(=O)[C@H](C)NC(=O)[C@H](CC(=O)O)NC(=O)[C@H](CC(=O)O)NC1=O (single isomer, unassigned) [I-95, Ac-Phe-Asp-Ala-R8-Asp-Asp-Ala-Ala-CypA-Val-PyrS-Phe-Trp-Gln-NH2] |  | 1.31 | 8.66 |  |  | 33 (≈ 59.9 µg/mL) | 
9 | CC(=O)N[C@@H](Cc1ccccc1)C(=O)N[C@@H](CC(=O)O)C(=O)N[C@@H](C)C(=O)N[C@]1(C)CCCCCCC=CCOC(=O)N2CC[C@@](C(=O)N[C@@H](Cc3c(F)c(F)c(F)c(F)c3F)C(=O)N[C@@H](Cc3c[nH]c4ccccc34)C(=O)N[C@@H](CCC(N)=O)C(N)=O)(C2)NC(=O)[C@H](C(C)C)NC(=O)[C@H](Cc2ccccc2)NC(=O)[C@H](C)NC(=O)[C@H](C)NC(=O)[C@H](CC(=O)O)NC(=O)[C@H](CC(=O)O)NC1=O [I-227, Ac-Phe-Asp-Ala-R8-Asp-Asp-Ala-Ala-Phe-Val-PyrS-Pff-Trp-Gln-NH2] |  |  | 5.91 | 38 (≈ 72.7 µg/mL) | 1.534 |  | 
10 | CC(=O)N1CCC[C@]12CC=CCCCC1(CCCC=CCCCCCC[C@@](C)(C(=O)N[C@@H](Cc3ccccc3)C(=O)N[C@@H](Cc3c[nH]c4ccccc34)C(=O)N[C@@H](CCC(N)=O)C(N)=O)NC(=O)[C@H](C(C)C)NC(=O)[C@H](Cc3ccccc3)NC(=O)[C@H](C)NC(=O)[C@H](C)NC(=O)[C@H](CCc3ccc(O)cc3)NC(=O)[C@H](CC(=O)O)NC1=O)NC(=O)[C@H](C)NC(=O)[C@H](CC(=O)O)NC2=O (stereo partly drawn) [I-273, Ac-PL3-Asp-Ala-B5-Asp-hTyr-Ala-Ala-Phe-Val-S8-Phe-Trp-Gln-NH2] |  | 2.74 | 1.89 | 10 (≈ 18.4 µg/mL) |  |  | 
11 | CCN(CC(=O)O)C[C@@H]1NC(=O)[C@H](CC(=O)O)NC(=O)C2(CCCC=CCCCCCC[C@@](C)(C(=O)N[C@@H](Cc3ccccc3)C(=O)N[C@@H](Cc3c[nH]c4ccccc34)C(=O)N[C@@H](CCC(N)=O)C(N)=O)NC(=O)[C@H](C(C)C)NC(=O)[C@H](Cc3ccccc3)NC(=O)[C@H](C)NC(=O)[C@H](C)NC1=O)CCCC=CC[C@]1(CCCN1C(C)=O)C(=O)N[C@@H](CC(=O)O)C(=O)N[C@@H](C)C(=O)N2 (stereo partly drawn) [I-172, Ac-PL3-Asp-Ala-B5-Asp-EtGA-Ala-Ala-Phe-Val-S8-Phe-Trp-Gln-NH2] |  |  | 0.324 | 50 (≈ 91.9 µg/mL) | 2.173 |  | 
12 | CC(=O)N1CCC[C@]12CC=CCCCC1(CCCC=CCCCCCC[C@@](C)(C(=O)N[C@@H](Cc3ccccc3)C(=O)N[C@@H](Cc3c[nH]c4ccccc34)C(=O)N[C@@H](CCC(N)=O)C(N)=O)NC(=O)[C@H](C(C)C)NC(=O)[C@H](C)NC(=O)[C@H](C)NC(=O)[C@H](C)NC(=O)[C@H](CC(=O)O)NC(=O)[C@H](CC(=O)O)NC1=O)NC(=O)[C@H](C)NC(=O)[C@H](CC(=O)O)NC2=O (stereo partly drawn) [I-353, Ac-PL3-Asp-Ala-B5-Asp-Asp-Ala-Ala-Ala-Val-S8-Phe-Trp-Gln-NH2] |  |  | 9.29 | 45 (≈ 76.7 µg/mL) | 1.916 |  | 
13 | CC(=O)N1CCC[C@]12CC=CCCCC1(CCCC=CCCCCCC[C@@](C)(C(=O)N[C@@H](Cc3ccccc3)C(=O)N[C@@H](Cc3csc4ccccc34)C(=O)N[C@@H](CCC(N)=O)C(N)=O)NC(=O)[C@H](CCC(N)=O)NC(=O)[C@H](Cc3ccccc3)NC(=O)[C@H](C)NC(=O)[C@H](C)NC(=O)[C@H](Cc3ccc4ccccc4c3)NC(=O)[C@H](CC(=O)O)NC1=O)NC(=O)[C@H](C)NC(=O)[C@H](CC(=O)O)NC2=O (stereo partly drawn) [I-295, Ac-PL3-Asp-Ala-B5-Asp-2NapA-Ala-Ala-Phe-Gln-S8-Phe-BztA-Gln-NH2] |  | 2.66 | 1.18 |  |  |  | 5
